The text below walks through data of patent US9079843B2, “23-yne-vitamin D3 derivative” (TEIJIN PHARMA LIMITED, priority 2010, dated 2015).

The structures appear in SMILES notation.

In series [1] the test system is osteoporosis model (oophorectomy) rats. Description: Bone mineral density-enhancing effect in osteoporosis model (oophorectomy) rats. It counts as in vivo, rat. To be noted: OVX rats, 5 times a week for 4 weeks, fourth and fifth lumbar vertebrae.
Description: (§1) After 24 hours from the final administration, blood was drawn under ether anesthesia and the rats were put down. Under anesthesia, bone mineral density of the fourth and fifth lumbar vertebrae was measured by using a dual-energy X-ray bone mineral analyzer (QDR-2000; Hologic, Inc.). For comparison, a sham surgery (sham) group (abdominal operation is performed but the ovary is not removed; the test compounds are not administered) and an oophorectomy (OVX) group (subjected to oophorectomy but the test compounds are not administered) were also subjected to measurement of the bone mineral density of lumbar vertebrae at the time of dissection. Further, measurement of calcium concentration in the serum of each group was also performed.
Series [2] in a line: Serum calcium concentration in osteoporosis model (oophorectomy) rats. To be noted: OVX rats; for Serum calcium value: 5 times a week for 4 weeks, 24 hours after final administration.
Description: as §1
The target in series [3] is T1, VDR (Homo sapiens, UniProt P11473).
T1 sequence (P11473 1-427): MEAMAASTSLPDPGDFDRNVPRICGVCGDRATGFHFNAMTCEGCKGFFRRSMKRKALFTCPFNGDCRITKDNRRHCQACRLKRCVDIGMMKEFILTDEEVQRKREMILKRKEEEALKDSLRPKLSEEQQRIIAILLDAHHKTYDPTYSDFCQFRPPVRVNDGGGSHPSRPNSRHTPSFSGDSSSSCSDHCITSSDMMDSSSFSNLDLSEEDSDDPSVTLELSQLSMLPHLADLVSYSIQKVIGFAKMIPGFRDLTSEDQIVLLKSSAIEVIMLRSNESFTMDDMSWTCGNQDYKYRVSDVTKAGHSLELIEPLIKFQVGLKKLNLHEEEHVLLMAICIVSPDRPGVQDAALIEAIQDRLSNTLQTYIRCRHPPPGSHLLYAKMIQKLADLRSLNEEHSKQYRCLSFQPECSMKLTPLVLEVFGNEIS
Description: Evaluation of VDR affinity (PolarScreen Vitamin D Receptor Competitor Assay, fluorescence polarization).
Description: VDR was evaluated by using a commercial measurement and evaluation kit, for example, “PolarScreen Vitamin D Receptor Competitor Assay, Red, Cat. No. PV4569” marketed by Invitrogen Corporation, according to the following procedure.
Solutions of the compounds were added to two wells each of a 384-well black plate in 10 μl aliquots. To each well, VDR/Fluoromone VDR Complex included in the kit was added in 10 μl aliquots and allowed to react at room temperature for 2 hours.

The target in series [4] is T2, human VDR (Homo sapiens, UniProt P11473).
T2 construct: expressed in transfected cells; host or cells: HOS cells (human osteoblast, ATCC)
T2 sequence (P11473 1-427): T1 sequence (P11473 1-427)
T2 sequence (P19793 1-462 partner): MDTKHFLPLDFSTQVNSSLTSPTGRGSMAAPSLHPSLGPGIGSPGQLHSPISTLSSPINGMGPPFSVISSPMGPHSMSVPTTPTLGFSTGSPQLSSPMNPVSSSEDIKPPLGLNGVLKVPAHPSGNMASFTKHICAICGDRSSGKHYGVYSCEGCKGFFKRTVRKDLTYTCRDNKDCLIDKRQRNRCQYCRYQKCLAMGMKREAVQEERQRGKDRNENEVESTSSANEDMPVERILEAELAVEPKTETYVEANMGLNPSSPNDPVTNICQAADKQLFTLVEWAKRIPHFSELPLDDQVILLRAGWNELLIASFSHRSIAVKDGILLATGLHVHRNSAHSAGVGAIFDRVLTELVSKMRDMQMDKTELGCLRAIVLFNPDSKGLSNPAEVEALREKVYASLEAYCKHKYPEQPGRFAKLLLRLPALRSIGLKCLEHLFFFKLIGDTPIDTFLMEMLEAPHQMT
Description: VDR transcriptional activity in human osteoblast (HOS cells), osteocalcin promoter luciferase reporter. It counts as cell-based. To be noted: 24 hours incubation. The source says:
(1) A reporter vector was constructed by inserting the sequence of the promoter region of human ostocalcin gene into the upstream of luciferase gene using a pGL3 vector (Promega Corporation), wherein the promoter region of the human ostocalcin gene was cloned using cDNA acquired from HOS cells (purchased from ATCC) by a method known in the literature (Ozono et al., The Journal of Biological Chemistry, 265, 21881-21888 (1990)). The expression vector was constructed by inserting a DNA sequence, which encodes human VDR and human RXR, into a pcDNA3 vector (Invitrogen Corporation). The HOS cells were incubated in a DMEM medium containing 10% FBS under conditions of 37° C. and 5% CO2, and subcultured every 2 or 3 days.
(2) The cells which had been subcultured were recovered by centrifugation and were suspended in serum- and phenol red-free DMEM medium in a density of 4×10^5 cells/mL. This was seeded on a 96-well plate in an amount of 0.1 mL/well. To this system, various vectors described in (1) were added in an amount of 0.05 mL per well using Lipofectamine 2000 (Invitrogen Corporation). After incubation at 37° C. for 3 hours, 2 μl each of ethanol solutions of the test compounds of various concentrations or ethanol as a control was added to each well. After incubation at 37° C. for 24 hours, the medium was removed, the cells were washed once with PBS(−), and thereafter luciferase activity was measured by using a luminometer (Berthold Technologies GmbH & Co. KG) using Dual-Glo Luciferase Assay Kit (Promega Corporation).
In general terms: Reporter assays use an easily measured gene product as a stand-in for the process of interest.

In general, EC50 refers to the concentration at which the effect is half-maximal.

As to `C=C1/C(=C\C=C2/CCC[C@]3(C)[C@@H]([C@H](C)CCCC(C)(C)O)CC[C@@H]23)C[C@@H](O)[C@H](OCCCO)[C@@H]1O` [2α-(3-hydroxypropyl)oxy-1α,25-dihydroxyvitamin D3, reference compound], the Bone mineral density was 0.2269 ± 0.0161 g/mL in series [1] (dose 10 ng/kg) and 0.2473 ± 0.0157 g/mL in series [1] (dose 25 ng/kg). The Serum calcium value in series [2] (dose 10 ng/kg) is 10.30 ± 0.37 mg/dL; in series [2] (dose 25 ng/kg) it was 11.20 ± 0.20 mg/dL. For the same compound, in series [2] (dose 25 ng/kg necessary for bone mineral density equal to or greater than sham group), the “increase in the serum calcium value” is not below 1 mg/dL.

Take `C=C1C(=CC=C2CCCC3(C)C2CCC3C(C)CC#CC(C)(C)O)CC(O)C(OCCC(=O)O)C1O` [Compound C-1, (5Z,7E)-(1R,2S,3R,20R)-2-(2-carboxyethoxy)-23-yne-9,10-seco-5,7,10(19)-cholestatriene-1,3,25-triol]: the Bone mineral density amounted to 0.2223 ± 0.0118 g/mL in series [1] (dose 4 ng/kg) and 0.2400 ± 0.0065 g/mL in series [1] (dose 10 ng/kg). In addition, in series [3], the “VDR affinity (in words)” value is listed as “very strong VDR affinity”. For the same compound, the half-maximal effective concentration (EC50) in series [4] is not above 0.2 nM.

As for `C=C1C(=CC=C2CCCC3(C)C2CCC3C(C)CC#CC(C)(C)O)CC(O)C(OCCC(=O)OC)C1O` [Compound C-2, (5Z,7E)-(1R,2S,3R,20R)-2-(2-methoxycarbonylethoxy)-23-yne-9,10-seco-5,7,10(19)-cholestatriene-1,3,25-triol], the Bone mineral density in series [1] (dose 6 ng/kg) is 0.2196 ± 0.0177 g/mL; in series [1] (dose 13 ng/kg) it was 0.2308 ± 0.0081 g/mL. In series [4], the concentration giving a half-maximal response (EC50) is not above 0.2 nM.

With `C=C1/C(=C\C=C2/CCC[C@]3(C)[C@@H]([C@H](C)CC#CC(C)(C)O)CC[C@@H]23)C[C@@H](O)[C@H](OCCC(=O)OC(C)C)[C@@H]1O` [Compound C-5, (5Z,7E)-(1R,2S,3R,20R)-2-(2-(1-methyl)ethoxycarbonylethoxy)-23-yne-9,10-seco-5,7,10(19)-cholestatriene-1,3,25-triol], the Bone mineral density in series [1] (dose 17 ng/kg) was 0.2316 ± 0.0134 g/mL; in series [1] (dose 50 ng/kg), 0.2354 ± 0.0126 g/mL. Moreover, the figures for the Serum calcium value in series [2] (dose 17 ng/kg) and in series [2] (dose 50 ng/kg) were 9.60 ± 0.15 mg/dL and 10.10 ± 0.21 mg/dL, respectively.

Turning to `C=C1/C(=C\C=C2/CCC[C@]3(C)[C@@H]([C@H](C)CC#CC(C)(C)O)CC[C@@H]23)C[C@@H](O)[C@H](OCCC(=O)OCOC(=O)C(C)(C)C)[C@@H]1O` [Compound C-7, (5Z,7E)-(1R,2S,3R,20R)-2-((t-butylcarbonyloxy)methoxycarbonylethoxy)-23-yne-9,10-seco-5,7,10(19)-cholestatriene-1,3,25-triol], the Bone mineral density in series [1] (dose 6 ng/kg) was found to be 0.2322 ± 0.0092 g/mL; in series [1] (dose 13 ng/kg), 0.2548 ± 0.0143 g/mL. Besides, the results for the Serum calcium value in series [2] (dose 6 ng/kg) and in series [2] (dose 13 ng/kg) were 9.83 ± 0.22 mg/dL and 10.07 ± 0.22 mg/dL, respectively.

Consider `C=C1C(=CC=C2CCCC3(C)C2CCC3C(C)CC#CC(C)(C)O)CC(O)C(CCCC(=O)O)C1O` [Compound D-1], for which the results for the Bone mineral density in series [1] (dose 6 ng/kg) and in series [1] (dose 13 ng/kg) were 0.2211 ± 0.0175 g/mL and 0.2360 ± 0.0143 g/mL, respectively. Further, the “VDR affinity (in words)” value in series [3] is reported as “very strong VDR affinity”. In addition, the EC50 in series [4] was not above 0.02 nM.

As to `C=C1C(=CC=C2CCCC3(C)C2CCC3C(C)CC#CC(C)(C)O)CC(O)C(CC(C)C(=O)OC(C)(C)C)C1O` [Compound D-6, (5Z,7E)-(1S,2S,3R,20R)-2-(2-(1,1-dimethyl)ethoxycarbonylpropyl)-23-yne-9,10-seco-5,7,10(19)-cholestatriene-1,3,25-triol], the Bone mineral density in series [1] (dose 50 ng/kg) was determined as 0.2365 ± 0.0204 g/mL. The Serum calcium value in series [2] (dose 50 ng/kg) is listed as 9.76 ± 0.29 mg/dL.

On to `C=C1/C(=C\C=C2/CCC[C@@]3(C)C2CC[C@@H]3[C@H](C)CC#CC(C)(C)O)C[C@@H](O)[C@H](OCC2(C(=O)O)CC2)[C@@H]1O` (stereo partly drawn) [Compound E-1, (5Z,7E)-(1R,2S,3R,20R)-2-((2-carboxy-2,2-ethano)ethoxy)-23-yne-9,10-seco-5,7,10 (19)-cholestatriene-1,3,25-triol], for which the EC50 in series [4] is not above 0.2 nM.

In the case of `C=C1C(=CC=C2CCCC3(C)C2CCC3C(C)CC#CC(O)(CC)CC)CC(O)C(OCCC(=O)O)C1O` [Compound F-1, (5Z,7E)-(1R,2S,3R,20R)-2-(2-carboxyethoxy)-26,27-dimethyl-23-yne-9,10-seco-5,7,10(19)-cholestatriene-1,3,25-triol], in series [1] (dose 6 ng/kg), the Bone mineral density turned out to be 0.2366 ± 0.0139 g/mL. In addition, the EC50 in series [4] is not above 0.02 nM.

`C=C1C(=CC=C2CCCC3(C)C2CCC3C(C)CC#CC2(O)CCCC2)CC(O)C(OCCC(=O)O)C1O` [Compound F-2, (5Z,7E)-(1R,2S,3R,20R)-2-(2-carboxyethoxy)-26,27-nor-25-cyclopentyl-23-yne-9,10-seco-5,7,10(19)-cholestatriene-1,3,25-triol]: the half-maximal effective concentration (EC50) in series [4] is not above 0.02 nM.
